# US9364467B2 (Salix Pharmaceuticals, Ltd, priority 2012, dated 2016)
# Read-outs that look alike come from different tables or passages of the source.
# Columns and labels:
# Bombesin BB1 = Bombesin BB1 (Homo sapiens, UniProt P28336); test: Radioligand binding assay, Bombesin BB1; conditions: CONC. 10 μM, hum
# Experimental: Methods employed in this study have been adapted from the scientific literature to maximize reliability and reproducibility. Reference standards were run as an integral part of each assay to ensure the validity of the results obtained. Assays were performed under conditions described in the accompanying “Methods” section below. The literature reference(s) for each assay are in the “Literature References” section.
# Where presented, IC50 values were determined by a non-linear, least squares regression analysis using MathIQ™ (ID Business Solutions Ltd., UK). Where inhibition constants (KI) are presented, the KI values were calculated using the equation of Cheng and Prusoff (Cheng, Y., Prusoff, W. H., Biochem. Pharmacol. 22:3099-3108, 1973) using the observed IC50 of the tested compound, the concentration of radioligand employed in the assay, and the historical values for the KD of the ligand (obtained experimentally at Ricerca Biosciences, LLC). Where presented, the Hill coefficient (nH), defining the slope of the competitive binding curve, was calculated using MathIQ™. […] Where IC50, KI, and/or nH data are presented without Standard Error of the Mean (SEM), data are insufficient to be quantitative, and the values presented (KI, IC50, nH) should be interpreted with caution. […]
# [1] = system: Enterobacteriaceae spp. strains; test: In vitro activity (MIC) against Enterobacteriaceae spp. strains
# Chain of Bombesin BB1 (P28336 whole entry): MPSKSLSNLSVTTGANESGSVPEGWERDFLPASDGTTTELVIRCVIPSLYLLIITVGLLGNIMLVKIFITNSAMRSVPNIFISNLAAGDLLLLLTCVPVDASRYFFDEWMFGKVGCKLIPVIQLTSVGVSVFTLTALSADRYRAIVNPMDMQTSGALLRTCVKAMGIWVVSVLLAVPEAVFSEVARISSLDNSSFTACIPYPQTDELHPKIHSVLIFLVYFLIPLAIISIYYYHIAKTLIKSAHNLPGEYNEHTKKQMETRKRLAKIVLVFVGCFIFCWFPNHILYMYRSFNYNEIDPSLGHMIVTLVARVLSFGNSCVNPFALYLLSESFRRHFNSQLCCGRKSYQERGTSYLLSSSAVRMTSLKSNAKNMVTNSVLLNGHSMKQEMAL
smiles,measurement,setting,value
COC1/C=C/O[C@@]2(C)Oc3c(C)c(O)c4c(O)c(c5c(c4c3C2=O)NC2C=C(C)C=CN52)NC(=O)/C(C)=C\C=C\C(C)C(O)C(C)C(O)C(C)C(O)C1C (stereo partly shown) [25-desacetyl rifaximin],inhibition at 10 µM,Bombesin BB1,> 50%
same,MIC,[1],128 µg/mL
same,MIC50,[1],128 µg/mL
same,MIC90,[1],256 µg/mL
same,MIC,"[1]; Citrobacter freundii, C. freundii 57",128 µg/mL
same,MIC,"[1]; Citrobacter freundii, C. freundii 58",128 µg/mL
same,MIC,"[1]; Citrobacter freundii, C. freundii 65",128 µg/mL
same,MIC,"[1]; Citrobacter freundii, C. freundii 68",256 µg/mL
same,MIC,"[1]; Citrobacter freundii, C. freundii 69",128 µg/mL
same,MIC,"[1]; Citrobacter freundii, C. freundii 1070",128 µg/mL
same,MIC,"[1]; Citrobacter freundii, C. freundii 1073",256 µg/mL
same,MIC,"[1]; Citrobacter freundii, C. freundii 1075",128 µg/mL
same,MIC,"[1]; Enterobacter cloacae, E. cloacae 1",128 µg/mL
same,MIC,"[1]; Enterobacter cloacae, E. cloacae 3",128 µg/mL
same,MIC,"[1]; Enterobacter cloacae, E. cloacae 8",256 µg/mL
same,MIC,"[1]; Enterobacter cloacae, E. cloacae 12",128 µg/mL
same,MIC,"[1]; Enterobacter cloacae, E. cloacae 13",128 µg/mL
same,MIC,"[1]; Enterobacter cloacae, E. cloacae 14",128 µg/mL
same,MIC,"[1]; Enterobacter cloacae, E. cloacae 16",128 µg/mL
same,MIC,"[1]; Enterobacter cloacae, E. cloacae 20",128 µg/mL
same,MIC,"[1]; Enterobacter cloacae, E. cloacae 321",128 µg/mL
same,MIC,"[1]; Enterobacter cloacae, E. cloacae 348",256 µg/mL
same,MIC,"[1]; Enterobacter cloacae, E. cloacae 349",128 µg/mL
same,MIC,"[1]; Enterobacter cloacae, E. cloacae 358",128 µg/mL
same,MIC,"[1]; Enterobacter cloacae, E. cloacae 367",128 µg/mL
same,MIC,"[1]; Enterobacter cloacae, E. cloacae 369",256 µg/mL
same,Range (MIC),[1]; Enterobacteriaceae spp. strains,128 to 256 µg/mL
same,MIC,"[1]; Escherichia coli, ATCC E. Coli 25922",128 µg/mL
same,MIC,"[1]; Escherichia coli, E. coli 6",128 µg/mL
same,MIC,"[1]; Escherichia coli, E. coli 15",128 µg/mL
same,MIC,"[1]; Escherichia coli, E. coli 34",128 µg/mL
same,MIC,"[1]; Escherichia coli, E. coli 37",128 µg/mL
same,MIC,"[1]; Escherichia coli, E. coli 41",128 µg/mL
same,MIC,"[1]; Escherichia coli, E. coli 43",128 µg/mL
same,MIC,"[1]; Escherichia coli, E. coli 44",256 µg/mL
same,MIC,"[1]; Escherichia coli, E. coli 46",128 µg/mL
same,MIC,"[1]; Escherichia coli, E. coli 47",128 µg/mL
same,MIC,"[1]; Escherichia coli, E. coli 48",256 µg/mL
same,MIC,"[1]; Escherichia coli, E. coli 49",128 µg/mL
same,MIC,"[1]; Escherichia coli, E. coli 56",128 µg/mL
same,MIC,"[1]; Escherichia coli, E. coli 62",128 µg/mL
same,MIC,"[1]; Escherichia coli, E. coli 71",128 µg/mL
same,MIC,"[1]; Escherichia coli, E. coli 90",128 µg/mL
same,MIC,"[1]; Escherichia coli, E. coli 92",128 µg/mL
same,MIC,"[1]; Escherichia coli, E. coli 93",256 µg/mL
same,MIC,"[1]; Escherichia coli, E. coli 95",128 µg/mL
same,MIC,"[1]; Escherichia coli, E. coli 96",128 µg/mL
same,MIC,"[1]; Escherichia coli, E. coli 97",128 µg/mL
same,MIC,"[1]; Escherichia coli, E. coli 100",128 µg/mL
same,MIC,"[1]; Escherichia coli, E. coli 102",128 µg/mL
same,MIC,"[1]; Escherichia coli, E. coli 103",128 µg/mL
same,MIC,"[1]; Escherichia coli, E. coli 109",128 µg/mL
same,MIC,"[1]; Escherichia coli, E. coli 110",256 µg/mL
same,MIC,"[1]; Escherichia coli, E. coli 112",128 µg/mL
same,MIC,"[1]; Escherichia coli, E. coli 113",128 µg/mL
same,MIC,"[1]; Escherichia coli, E. coli 117",256 µg/mL
same,MIC,"[1]; Escherichia coli, E. coli 118",128 µg/mL
same,MIC,"[1]; Escherichia coli, E. coli 120",128 µg/mL
same,MIC,"[1]; Escherichia coli, E. coli 140",256 µg/mL
same,MIC,"[1]; Escherichia coli, E. coli 171",128 µg/mL
same,MIC,"[1]; Escherichia coli, E. coli 342",128 µg/mL
same,MIC,"[1]; Escherichia coli, E. coli 343",256 µg/mL
same,MIC,"[1]; Escherichia coli, E. coli 345",128 µg/mL
same,MIC,"[1]; Escherichia coli, E. coli 349",128 µg/mL
same,MIC,"[1]; Escherichia coli, E. coli 351",128 µg/mL
same,MIC,"[1]; Klebsiella aerogenes, E. aerogenes 235",128 µg/mL
same,MIC,"[1]; Klebsiella aerogenes, E. aerogenes 281",128 µg/mL
